Tests used:
[1] = biological target: T1, Tyrosine-protein phosphatase non-receptor type 2 (Homo sapiens, UniProt P17706); experiment: Inhibition of human T cell protein-tyrosine phosphatase; format: cell-based
T1 sequence (P17706 whole entry): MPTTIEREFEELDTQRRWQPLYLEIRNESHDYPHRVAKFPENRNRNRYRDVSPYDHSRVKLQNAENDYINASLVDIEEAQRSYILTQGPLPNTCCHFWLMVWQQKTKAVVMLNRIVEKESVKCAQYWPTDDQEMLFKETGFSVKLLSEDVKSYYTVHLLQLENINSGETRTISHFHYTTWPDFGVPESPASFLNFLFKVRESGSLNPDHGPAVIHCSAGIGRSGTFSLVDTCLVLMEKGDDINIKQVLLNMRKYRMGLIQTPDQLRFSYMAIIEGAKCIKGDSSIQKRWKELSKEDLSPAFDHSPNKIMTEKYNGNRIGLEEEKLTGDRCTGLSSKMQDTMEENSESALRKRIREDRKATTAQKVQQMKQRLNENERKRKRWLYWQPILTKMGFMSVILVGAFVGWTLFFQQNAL

[2] = biological target: T2, Low molecular weight phosphotyrosine protein phosphatase (Homo sapiens, UniProt P24666); experiment: Inhibition of human low molecular weight Protein-tyrosine phosphatase IF2
T2 sequence (P24666 whole entry): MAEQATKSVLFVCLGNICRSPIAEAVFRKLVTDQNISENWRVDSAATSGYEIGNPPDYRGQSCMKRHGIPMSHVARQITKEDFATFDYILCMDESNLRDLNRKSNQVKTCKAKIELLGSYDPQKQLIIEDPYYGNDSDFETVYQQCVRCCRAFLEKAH

[3] = biological target: Receptor-type tyrosine-protein phosphatase beta (Homo sapiens, UniProt P23467); experiment: Inhibition of human protein-tyrosine phosphatase beta
[4] = Inhibition of Yersinia Tyrosine-protein phosphatase yopH; design: species or system Yersinia sp.
[5] = biological target: Receptor-type tyrosine-protein phosphatase F (Homo sapiens, UniProt P10586); experiment: Inhibition of human leukocyte antigen related protein-tyrosine phosphatase
[6] = biological target: T3, Low molecular weight phosphotyrosine protein phosphatase (Saccharomyces cerevisiae S288c, UniProt P40347); experiment: Inhibition of Saccharomyces cerevisiae low molecular weight Protein-tyrosine phosphatase Ltp1
T3 sequence (P40347 whole entry): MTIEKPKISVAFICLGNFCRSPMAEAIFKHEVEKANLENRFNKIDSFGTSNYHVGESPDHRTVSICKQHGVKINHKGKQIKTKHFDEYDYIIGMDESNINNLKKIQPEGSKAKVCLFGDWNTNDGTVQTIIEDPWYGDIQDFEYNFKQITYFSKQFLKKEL

[7] = biological target: T4, Tyrosine-protein phosphatase non-receptor type 1 (Homo sapiens, UniProt P18031); experiment: Inhibition of human protein-tyrosine phosphatase 1B
T4 sequence (P18031 whole entry): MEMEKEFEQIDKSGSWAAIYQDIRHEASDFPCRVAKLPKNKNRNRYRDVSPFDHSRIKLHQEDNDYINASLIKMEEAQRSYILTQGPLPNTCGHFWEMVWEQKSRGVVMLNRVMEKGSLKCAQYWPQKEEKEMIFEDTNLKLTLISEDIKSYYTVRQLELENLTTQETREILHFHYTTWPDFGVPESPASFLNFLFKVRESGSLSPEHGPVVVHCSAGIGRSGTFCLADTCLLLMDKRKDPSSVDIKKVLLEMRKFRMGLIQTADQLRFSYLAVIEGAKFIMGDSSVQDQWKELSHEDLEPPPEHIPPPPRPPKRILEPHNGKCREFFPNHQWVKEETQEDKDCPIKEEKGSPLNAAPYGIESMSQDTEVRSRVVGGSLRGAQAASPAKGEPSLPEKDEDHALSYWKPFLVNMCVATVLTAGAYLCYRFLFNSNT

[8] = biological target: T2, Low molecular weight phosphotyrosine protein phosphatase; experiment: Inhibition of human low molecular weight Protein-tyrosine phosphatase IF1

Sequence of Receptor-type tyrosine-protein phosphatase beta (P23467 whole entry): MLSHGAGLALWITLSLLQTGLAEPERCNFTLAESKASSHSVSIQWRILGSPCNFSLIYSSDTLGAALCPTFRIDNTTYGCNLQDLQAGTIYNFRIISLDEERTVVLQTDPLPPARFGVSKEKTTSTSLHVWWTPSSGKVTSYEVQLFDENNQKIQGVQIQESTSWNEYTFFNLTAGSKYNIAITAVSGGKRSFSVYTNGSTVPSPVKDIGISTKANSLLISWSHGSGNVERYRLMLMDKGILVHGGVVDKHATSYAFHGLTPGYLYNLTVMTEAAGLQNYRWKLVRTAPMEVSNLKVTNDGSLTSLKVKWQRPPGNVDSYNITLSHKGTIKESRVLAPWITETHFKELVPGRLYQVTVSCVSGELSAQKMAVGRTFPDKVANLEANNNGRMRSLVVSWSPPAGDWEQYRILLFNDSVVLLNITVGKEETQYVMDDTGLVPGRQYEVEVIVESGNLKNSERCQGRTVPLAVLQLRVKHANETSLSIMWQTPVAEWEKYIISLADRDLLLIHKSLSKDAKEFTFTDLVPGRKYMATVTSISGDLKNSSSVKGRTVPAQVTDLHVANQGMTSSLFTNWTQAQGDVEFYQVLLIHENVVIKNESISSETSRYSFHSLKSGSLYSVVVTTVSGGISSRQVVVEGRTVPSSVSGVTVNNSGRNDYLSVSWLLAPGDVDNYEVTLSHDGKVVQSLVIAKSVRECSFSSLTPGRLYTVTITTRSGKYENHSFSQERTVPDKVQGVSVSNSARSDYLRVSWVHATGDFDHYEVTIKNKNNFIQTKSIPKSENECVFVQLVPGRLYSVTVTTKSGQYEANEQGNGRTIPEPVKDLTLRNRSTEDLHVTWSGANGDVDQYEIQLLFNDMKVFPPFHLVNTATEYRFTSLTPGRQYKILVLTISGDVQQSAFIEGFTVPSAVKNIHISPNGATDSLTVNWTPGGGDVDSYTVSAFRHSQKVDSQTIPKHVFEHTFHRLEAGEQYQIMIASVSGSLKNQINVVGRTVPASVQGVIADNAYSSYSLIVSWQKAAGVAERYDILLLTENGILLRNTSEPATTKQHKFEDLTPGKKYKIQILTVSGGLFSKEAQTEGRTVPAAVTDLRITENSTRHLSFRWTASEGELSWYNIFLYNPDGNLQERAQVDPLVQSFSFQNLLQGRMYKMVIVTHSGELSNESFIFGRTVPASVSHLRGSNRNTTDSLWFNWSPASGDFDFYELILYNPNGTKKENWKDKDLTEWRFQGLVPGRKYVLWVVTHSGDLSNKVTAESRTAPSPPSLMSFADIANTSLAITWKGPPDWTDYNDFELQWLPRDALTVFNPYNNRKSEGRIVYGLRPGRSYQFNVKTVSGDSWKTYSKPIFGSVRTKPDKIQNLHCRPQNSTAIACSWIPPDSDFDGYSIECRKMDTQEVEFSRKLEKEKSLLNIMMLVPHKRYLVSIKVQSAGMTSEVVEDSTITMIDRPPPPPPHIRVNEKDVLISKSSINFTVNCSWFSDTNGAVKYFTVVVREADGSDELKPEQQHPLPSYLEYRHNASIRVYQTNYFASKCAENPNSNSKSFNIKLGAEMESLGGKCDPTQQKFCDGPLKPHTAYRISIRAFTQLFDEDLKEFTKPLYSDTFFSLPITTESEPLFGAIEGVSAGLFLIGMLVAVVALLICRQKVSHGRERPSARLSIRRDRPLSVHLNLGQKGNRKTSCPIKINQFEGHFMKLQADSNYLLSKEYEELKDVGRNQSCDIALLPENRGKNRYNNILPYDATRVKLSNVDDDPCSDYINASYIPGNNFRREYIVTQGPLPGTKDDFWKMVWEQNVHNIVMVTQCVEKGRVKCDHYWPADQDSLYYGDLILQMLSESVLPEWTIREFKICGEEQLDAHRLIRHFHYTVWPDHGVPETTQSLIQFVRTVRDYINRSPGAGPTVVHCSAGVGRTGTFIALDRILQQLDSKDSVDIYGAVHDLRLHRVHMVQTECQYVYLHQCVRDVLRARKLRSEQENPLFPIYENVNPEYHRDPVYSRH
Sequence of Receptor-type tyrosine-protein phosphatase F (P10586 whole entry): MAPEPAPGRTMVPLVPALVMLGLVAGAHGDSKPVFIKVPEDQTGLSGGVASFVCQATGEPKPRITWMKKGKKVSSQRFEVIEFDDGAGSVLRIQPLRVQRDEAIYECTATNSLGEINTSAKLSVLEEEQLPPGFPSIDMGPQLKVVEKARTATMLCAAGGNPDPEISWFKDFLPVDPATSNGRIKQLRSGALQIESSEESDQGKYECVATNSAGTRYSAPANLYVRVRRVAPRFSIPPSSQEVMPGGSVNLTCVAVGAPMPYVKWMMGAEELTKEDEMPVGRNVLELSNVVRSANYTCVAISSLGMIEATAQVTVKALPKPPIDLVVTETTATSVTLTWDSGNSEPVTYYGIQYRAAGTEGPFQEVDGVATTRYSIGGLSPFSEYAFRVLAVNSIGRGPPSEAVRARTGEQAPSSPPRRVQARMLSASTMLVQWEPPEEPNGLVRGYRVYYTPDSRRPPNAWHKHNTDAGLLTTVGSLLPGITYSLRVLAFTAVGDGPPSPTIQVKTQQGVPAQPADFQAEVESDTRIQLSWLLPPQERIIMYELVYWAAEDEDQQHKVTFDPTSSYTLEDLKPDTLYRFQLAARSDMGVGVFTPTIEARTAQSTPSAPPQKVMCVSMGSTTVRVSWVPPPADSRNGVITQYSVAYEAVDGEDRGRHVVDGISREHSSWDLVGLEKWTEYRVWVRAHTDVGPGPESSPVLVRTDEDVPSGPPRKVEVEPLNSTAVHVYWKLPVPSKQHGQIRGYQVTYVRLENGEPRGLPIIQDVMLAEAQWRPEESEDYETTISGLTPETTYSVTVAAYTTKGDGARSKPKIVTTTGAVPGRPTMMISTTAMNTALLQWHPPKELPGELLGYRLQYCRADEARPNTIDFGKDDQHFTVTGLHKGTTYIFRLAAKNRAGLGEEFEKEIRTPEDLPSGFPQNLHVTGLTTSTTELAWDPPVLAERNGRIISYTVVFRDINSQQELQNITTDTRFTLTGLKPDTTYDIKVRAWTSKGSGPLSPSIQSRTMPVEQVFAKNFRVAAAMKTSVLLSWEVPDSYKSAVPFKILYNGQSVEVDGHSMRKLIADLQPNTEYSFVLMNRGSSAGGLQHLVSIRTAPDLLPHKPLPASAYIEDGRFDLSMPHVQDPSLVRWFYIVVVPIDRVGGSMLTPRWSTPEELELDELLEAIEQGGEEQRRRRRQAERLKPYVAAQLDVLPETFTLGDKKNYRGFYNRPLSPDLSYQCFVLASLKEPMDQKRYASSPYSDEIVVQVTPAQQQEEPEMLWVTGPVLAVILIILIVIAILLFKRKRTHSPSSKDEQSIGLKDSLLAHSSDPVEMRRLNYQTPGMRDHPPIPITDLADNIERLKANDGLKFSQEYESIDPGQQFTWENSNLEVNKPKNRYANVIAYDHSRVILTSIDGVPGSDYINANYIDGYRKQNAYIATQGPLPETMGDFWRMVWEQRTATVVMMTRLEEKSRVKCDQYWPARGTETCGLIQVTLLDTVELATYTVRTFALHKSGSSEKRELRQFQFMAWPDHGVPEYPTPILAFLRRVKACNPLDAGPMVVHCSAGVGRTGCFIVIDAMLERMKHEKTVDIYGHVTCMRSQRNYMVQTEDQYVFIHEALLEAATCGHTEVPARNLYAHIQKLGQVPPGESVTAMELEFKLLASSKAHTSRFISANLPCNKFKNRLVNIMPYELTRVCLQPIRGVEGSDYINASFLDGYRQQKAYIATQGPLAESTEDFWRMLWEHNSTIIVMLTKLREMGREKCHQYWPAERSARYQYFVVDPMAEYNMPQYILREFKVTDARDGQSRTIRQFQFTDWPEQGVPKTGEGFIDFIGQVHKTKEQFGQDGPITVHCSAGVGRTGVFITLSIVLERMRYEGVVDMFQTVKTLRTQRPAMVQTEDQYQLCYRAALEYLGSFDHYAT

Compound | IC50 [1] | IC50 [2] | IC50 [3] | IC50 [4] | IC50 [5] | IC50 [6] | IC50 [7] | IC50 [8]
O=C(O)c1ccc(CN2C(=O)S/C(=C\c3cccc(OCc4ccccc4)c3)C2=O)cc1 | – | 18.4 µM | – | – | – | 19.7 µM | 1.1 µM | 7.1 µM
O=C(O)c1ccc(CN2C(=O)S/C(=C\c3cccc(O)c3)C2=O)cc1 | – | 112 µM | – | – | – | 1390 µM | 10.2 µM | 85.7 µM
O=C(O)c1ccc(CN2C(=O)S/C(=C\c3ccc4ccccc4c3)C2=O)cc1 | – | 92 µM | – | – | – | 149 µM | 6.5 µM | 12 µM
COc1cc(/C=C2\SC(=O)N(Cc3ccc(C(=O)O)cc3)C2=O)ccc1O | – | 26.6 µM | – | – | – | 389 µM | 2.6 µM | 9.1 µM
O=C(O)c1ccc(CN2C(=O)S/C(=C\c3ccc(Oc4ccccc4)cc3)C2=O)cc1 | 2.8 µM | 13 µM | 1.1 µM | 1 µM | – | 34 µM | 2.8 µM | 0.9 µM
O=C(O)c1ccc(CN2C(=O)S/C(=C\c3ccc(O)cc3)C2=O)cc1 | – | 85 µM | – | – | – | 188 µM | 10 µM | 30 µM

More lines, in order of falling IC50 [2], values ahead:

IC50 [1] | IC50 [2] | IC50 [3] | IC50 [4] | IC50 [5] | IC50 [6] | IC50 [7] | IC50 [8] | Compound
– | 1640 µM | – | – | – | > 450 µM | 85 µM | 219 µM | O=C(O)COc1ccc(/C=C2\SC(=O)N(Cc3ccc(C(=O)O)cc3)C2=O)cc1
– | 138 µM | – | – | – | 99 µM | 5.5 µM | 122 µM | O=C(O)c1ccc(CN2C(=O)S/C(=C\c3cccc4ccccc34)C2=O)cc1
– | 130 µM | – | – | – | 483 µM | 18 µM | 37 µM | O=C(O)c1ccc(CN2C(=O)S/C(=C\c3cccc(Oc4ccccc4)c3)C2=O)cc1
1.3 µM | 5.6 µM | 0.4 µM | 0.3 µM | 27 µM | 15 µM | 1.6 µM | 2.5 µM | O=C(O)c1ccc(CN2C(=O)S/C(=C\c3ccc(OCc4ccccc4)cc3)C2=O)cc1

— ChEMBL document CHEMBL1149603, “5-Arylidene-2,4-thiazolidinediones as inhibitors of protein tyrosine phosphatases” (Bioorg Med Chem, 2007)
